The assay relates to LS174T cells. Kind of assay: Soft agar colony formation assay. Type of assay: cell-based, human. The following applies: 1 μM, 7 days. The procedure: Analysis of anchorage-independent cell proliferation was achieved by soft agar colony formation assay. A bottom layer containing 0.5% w/v agarose, RPMI-1640 medium, 10% FBS and 1 μM niclosamide or the respective amount of DMSO was added to a 6 cm Ø dish and incubated at room temperature under sterile conditions for 10 minutes. Onto the solidified bottom layer a top layer was added containing 8×10^3 cells, 0.33% w/v agarose, RPMI-1640 medium, 10% FBS and 1 μM niclosamide or the respective amount of DMSO. Cells were seeded as single cells into the soft agar and incubated in a humidified incubator at 37° C. and 5% CO2 for 7 days. Colony formation was visualized by 10× magnification for an overview and 40× magnification for single colonies in the Leica DM IL light microscope (Leica Microsystems). Colony quantification was achieved by counting cell colonies of more than 4 cells in 10 squares of […]. Colony formation experiments were repeated twice, each in triplicates.
(A) S100A4 expression under niclosamide treatment. Cells were treated with 1 μM niclosamide for 24 hours. S100A4 expression was analyzed with qRT-PCR and immunoblot. (B) Cell migration under niclosamide treatment. Migration rates of cells treated with 1 μM niclosamide for 24 hours were determined in a Boyden chamber assay values were normalized to solvent-treated SW620 cells. (C) Cell invasion under niclosamide treatment. Cells were seeded onto Matrigel covered transwells and treated with 1 μM niclosamide for 24 hours. Invaded cells in the lower chamber were counted and normalized to solvent-treated SW620 cells. Differences in solvent vs. niclosamide-treated cells were analyzed by Student's t test. Data represent mean±SE of at least two independent experiments each performed in triplicate. (D) Directed migration under niclosamide treatment. Wounds of 300 μM width were set in a 60% confluent monolayer of cells on day 1. Cells were treated daily with 1 μM niclosamide for 4 days. Microphotographs of day 4 are presented here with black lines indicating margins of the wound on day 1; scale bar represents 200 μM. Directed migration data shown are representatives of three independent experiments. (E) Adhesive cell proliferation under niclosamide treatment. Cells were treated daily with 1 μM niclosamide. The amount of viable cells per well was determined by MTT assay. (F) Anchorage-independent cell growth under niclosamide treatment. Cells were plated as single cells into 0.33% (w/v) agarose and treatment (solvent or 1 μM niclosamide) containing medium. After 7 days colonies were visualized by light microscopy at 10× (overview) and 40× (single colony) magnification. (G) Quantification of colonies formed. Number of colonies (of more than 4 cells) was counted and normalized to solvent-treated SW620 cells. Differences in solvent vs. niclosamide-treated cells were analyzed by Student's t test. Data represent mean mean±SE of at least two independent experiments each performed in duplicates.

Take `O=C(Nc1ccc([N+](=O)[O-])cc1Cl)c1cc(Cl)ccc1O` [niclosamide, 2′,5-dichloro-4′-nitrosalicylanilide]: the “anchorage-independent growth, colony size” value is given as “clearly smaller cell colonies” and the “number of colonies, mean difference control vs niclosamide” value is listed as 74.6%. For the same compound, the “number of colonies, mean % (normalized to solvent-treated SW620 cells)” value (solvent control 90.6%) stood at 15.9%.

(Values after patent US11331290B2, “Niclosamide for the treatment of cancer metastasis” (Max-Delbrück-Centrum für Molekulare Medizin in der …, priority 2011, dated 2022).)
